From the RepoRT retention time repository (doi:10.1007/s00216-015-8540-6)

Assay: Waters Atlantis T3, 100 × 2.1 mm, 3 µm, 0.1 mL/min, estimated dead time 2.2 min; A: water + 0.01% formic acid; B: methanol + 0.01% formic acid; gradient (min/%B) 0/5 3/5 20/100 29/100
Conditions: stereoisomer not certain

| Compound | LC retention time [min] |
| --- | --- |
| CCN(CC)CC(=O)Nc1c(C)cccc1C | 13.4 |
| CNCCC=C1c2ccccc2CCc2ccccc21 | 18 |
| CN(C)C1C(=O)C(C(N)=O)=C(O)C2(O)C(=O)C3=C(O)c4c(O)cccc4C(C)(O)C3CC12 (stereo unspecified) | 14.5 |
| COc1cccc(C2(O)CCCCC2CN(C)C)c1 (stereo unspecified) | 14.2 |
| COCCc1ccc(OCC(O)CNC(C)C)cc1 (stereo unspecified) | 11.2 |
| CN1CCN2c3ncc(O)cc3Cc3ccccc3C2C1 (stereo unspecified) | 13.6 |
| CCn1cc(C(=O)O)c(=O)c2cc3c(cc21)OCO3 | 18.3 |
| CC(=O)OC1C=CC2C3Cc4ccc(O)c5c4C2(CCN3C)C1O5 (stereo unspecified) | 12.5 |
| CN=C(NC#N)NCCSCc1nc[nH]c1C | 11.5 |
| CCC(=O)C(CC(C)N(C)C)(c1ccccc1)c1ccccc1 (stereo unspecified) | 17.6 |
| CCC(C(N)=O)N1CCCC1=O (stereo unspecified) | 13.7 |
| CN(C)CCC=C1c2ccccc2CCc2ccccc21 | 17.9 |
| COC(=O)C1C(OC(=O)c2ccccc2)CC2CCC1N2C (stereo unspecified) | 14.3 |
| CN(C)C1C(=O)C(C(N)=O)=C(O)C2(O)C(=O)C3=C(O)c4c(O)cccc4C(C)(O)C3C(O)C12 (stereo unspecified) | 14.8 |
| CNC(C)C(O)c1ccccc1 (stereo unspecified) | 11.7 |
| CN1C2CCC1C(C(=O)O)C(OC(=O)c1ccccc1)C2 (stereo unspecified) | 15.7 |
| Cc1noc(NS(=O)(=O)c2ccc(N)cc2)c1C | 14.6 |
| COc1ccc2nc(S(=O)Cc3ncc(C)c(OC)c3C)[nH]c2c1 (stereo unspecified) | 18.7 |
| CC(N)C(O)c1ccccc1 (stereo unspecified) | 10.9 |
| COc1ccc2c3c1OC1C(O)C=CC4C(C2)N(C)CCC341 (stereo unspecified) | 11.8 |
| CNC(C)Cc1ccccc1 (stereo unspecified) | 12.8 |
| CCOc1cc(OC)c(OCC)cc1CC(C)N (stereo unspecified) | 3.15 |

| Compound | LC retention time [min] |
| --- | --- |
| O=C1CN=C(c2ccccc2)c2cc([N+](=O)[O-])ccc2N1 | 20.4 |
| CC(=O)Oc1ccc2c3c1OC1C(OC(C)=O)C=CC4C(C2)N(C)CCC341 (stereo unspecified) | 14.1 |
| COc1ccc2c3c1OC1C(=O)CCC4(O)C(C2)N(C)CCC314 (stereo unspecified) | 12.1 |
| CN1CCC23c4c5ccc(O)c4OC2C(O)C=CC3C1C5 (stereo unspecified) | 9.52 |
| CCCCCc1cc(O)c2c(c1C(=O)O)OC(C)(C)C1CCC(C)=CC21 (stereo unspecified) | 26.9 |
| CN1CCN2c3ncccc3Cc3ccccc3C2C1 (stereo unspecified) | 14.6 |
| CN(C)C(=N)N=C(N)N | 3.04 |
| COc1cc(Cc2cnc(N)nc2N)cc(OC)c1OC | 12.9 |
| CC(N)Cc1ccc2c(c1)OCO2 (stereo unspecified) | 12.9 |
| COC12CCC3(CC1C(C)(O)C(C)(C)C)C1Cc4ccc(O)c5c4C3(CCN1CC1CC1)C2O5 (stereo unspecified) | 16.8 |
| Cc1ncc([N+](=O)[O-])n1CCO | 13.3 |
| COc1ccc(C(CN(C)C)C2(O)CCCCC2)cc1 (stereo unspecified) | 15.7 |
| CCNC(C)Cc1ccc2c(c1)OCO2 (stereo unspecified) | 13.4 |
| CNC(C)Cc1ccc2c(c1)OCO2 (stereo unspecified) | 13 |
| CC(C)NCC(O)COc1cccc2ccccc12 (stereo unspecified) | 16.2 |
| CC(N)Cc1ccccc1 (stereo unspecified) | 12.6 |
| CN(C)CCC=C1c2ccccc2COc2ccccc21 | 16.7 |
| CCN(CC)C(=O)C1C=C2c3cccc4[nH]cc(c34)CC2N(C)C1 (stereo unspecified) | 15.1 |
| NC(=O)N1c2ccccc2C=Cc2ccccc21 | 20.2 |
| CCOP(=O)(Sc1ccccc1)Sc1ccccc1 | 16.2 |
| Cc1cc2c(s1)Nc1ccccc1N=C2N1CCN(C)CC1 | 12.6 |

Results, then the molecule that gave them:

| LC retention time [min] | Compound |
| --- | --- |
| 18.7 | CCC1OC(=O)C(C)C(OC2CC(C)(OC)C(O)C(C)O2)C(C)C(OC2OC(C)CC(N(C)C)C2O)C(C)(OC)CC(C)C(=O)C(C)C(O)C1(C)O (stereo unspecified) |
| 11.2 | CC1(C)SC2C(NC(=O)C(N)c3ccc(O)cc3)C(=O)N2C1C(=O)O (stereo unspecified) |
| 17.1 | CCC1(c2ccccc2)C(=O)NCNC1=O |
| 24.4 | CCCCC(=O)N(Cc1ccc(-c2ccccc2-c2nn[nH]n2)cc1)C(C(=O)O)C(C)C (stereo unspecified) |
| 24.8 | CC(=O)C1CCC2C3CCC4=CC(=O)CCC4(C)C3CCC12C (stereo unspecified) |
| 18.7 | CCC1OC(=O)C(C)C(OC2CC(C)(OC)C(O)C(C)O2)C(C)C(OC2OC(C)CC(N(C)C)C2O)C(C)(O)CC(C)CN(C)C(C)C(O)C1(C)O (stereo unspecified) |
| 11.8 | CC1=C(C(=O)O)N2C(=O)C(NC(=O)C(N)c3ccccc3)C2SC1 (stereo unspecified) |
| 20 | CC12CCC(=O)C=C1CCC1C2C(=O)CC2(C)C1CCC2(O)C(=O)CO (stereo unspecified) |
| 21.8 | CC(C(=O)O)c1cccc(C(=O)c2ccccc2)c1 (stereo unspecified) |
| 20.6 | CC12CCC(=O)C=C1CCC1C2C(O)CC2(C)C1CCC2(O)C(=O)CO (stereo unspecified) |
| 11.4 | CNC(=C[N+](=O)[O-])NCCSCc1ccc(CN(C)C)o1 |
| 11.3 | CC(C)NCC(O)COc1ccc(CC(N)=O)cc1 (stereo unspecified) |
| 21.4 | CC1CC2C(C(O)CC3(C)C2CCC3(O)C(=O)CO)C2(C)C=CC(=O)C=C12 (stereo unspecified) |
| 11.8 | CC1=C(C(=O)O)N2C(=O)C(NC(=O)C(N)c3ccc(O)cc3)C2SC1 (stereo unspecified) |
| 13.2 | Cn1c([N+](=O)[O-])cnc1COC(N)=O |
| 13.3 | CC(=O)Nc1ccc(O)cc1 |
| 17.3 | C=CC1(C)CC(OC(=O)CSCCN(CC)CC)C2(C)C(C)CCC3(CCC(=O)C32)C(C)C1O (stereo unspecified) |
| 17.6 | CN(C)CCCN1c2ccccc2CCc2ccccc21 |
| 17.6 | Cc1nnc(SCC2=C(C(=O)O)N3C(=O)C(NC(=O)Cn4cnnn4)C3SC2)s1 (stereo unspecified) |
| 15.2 | Cn1c(=O)c2c(ncn2C)n(C)c1=O |
| 27.1 | CCC(C)(C)C(=O)OC1CC(C)C=C2C=CC(C)C(CCC3CC(O)CC(=O)O3)C21 (stereo unspecified) |
| 18.3 | CC1(C)OC2COC3(COS(N)(=O)=O)OC(C)(C)OC3C2O1 (stereo unspecified) |
| 17.6 | CCC1OC(=O)CC(O)C(C)C(OC2OC(C)C(OC3CC(C)(O)C(O)C(C)O3)C(N(C)C)C2O)C(CC=O)CC(C)C(=O)C=CC(C)=CC1COC1OC(C)C(O)C(OC)C1OC (stereo unspecified) |
